Literature values in patent US8173175B2, “Ethanolic and/or aqueous composition of an ammoniacal solution of alkaline metal salts of azide, mainly sodium and potassium” (priority 2005, dated 2012).

Columns and labels:
catalase = settings: grapevine buds (Nir and Lavee 1993); for H2CN2 according to the manufacturer
grapevine buds = settings: Nir and Lavee 1993

Row | SMILES | inhibition of catalase activity (catalase) | effect on the budding (grapevine buds) | European Union toxicity classification (EU catalogue) | USEPA toxicity category (United States Environmental Protection Agency classification)
1 | Nc1ncn[nH]1 [1,4-triazolamine] | able of inhibit the catalase activity | does not have any effect on the budding |  | 
2 | N#CN [H2CN2, hydrogen cyanamide] | inhibition of the enzyme catalase |  | toxic, harmful compound in contact with the skin and eyes and skin irritant | category I (acute toxic)
